Read-outs that look alike come from different tables or passages of the source.
Legend:
[1] = test system: genotype A, "Long" strain RSV; assay: RSV-A assay (CPE protection in Hep-2 cells, ATPlite readout); assay type: cell-based, Human respiratory syncytial virus (HRSV); details: MOI 0.1, CPE protection
Summary of the method: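 Hep-2 cells (8,000/well) were treated with 2-fold serial compound dilutions in duplicate and infected with RSV at MOI 0.1. After 5 days, protection from cytopathic effect was measured as cell viability by ATPlite luminescence, and EC50 values were derived.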

[2] = test system: HMPV clinical isolate TN/1501/A1; assay: HMPV antiviral assay Method-B (clinical isolate TN/1501/A1 in LLC-MK2 cells, ATP-Lite readout); assay type: cell-based, Human metapneumovirus (HMPV); details: hMPV WT1501 (clinical isolate TN/1501/A1), 6 days
Summary of the method: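 EC50 derived by four-parameter logistic fit of percent cell health, measured by ATP-Lite luminescence and normalised to virus-only and uninfected-cell controls. Compounds run in duplicate from 10 μM top, 3-fold, 10 points. Infection: LLC-MK2 cells, MOI 0.014, 2 μg/mL final TPCK-trypsin, serum-free, 6 days at 37° C.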

[3] = human respiratory syncytial virus, genotype A “Long” strain RSV, read-out: Human RSV-A (“Long”)
[4] = human metapneumovirus, LLC-MK2, 144 h
[5] = human respiratory syncytial virus, RSV-A Long strain, read-out: Human RSV-A (“Long”) EC50

Row | SMILES | EC50 [1, 3] | EC50 [2, 4] | EC50 [1, 5] | EC50 ([1]; RSV-A Long strain, read-out: Human RSV-A (“Long”) EC50) | EC50 [2]
1 | COc1cc(C(=O)NC[C@](O)(c2cc3c(c(-c4ccc5c(c4)OC(F)(F)O5)n2)OC[C@]3(C)C(N)=O)C(F)(F)F)cc2cc(C3CC3)nnc12 [Example 765] | < 0.2 µM | < 0.5 µM | – | – | –
2 | COc1cc(C(=O)NC[C@](O)(c2cc3c(c(-c4c(F)cc(Cl)cc4F)n2)OC[C@]3(C)C(N)=O)C2CC2)cc2cn(C(F)F)nc12 [Example 1156] | – | < 0.5 µM | < 0.2 µM | – | –
3 | Cc1cnc2c(OC(F)(F)F)cc(C(=O)NC[C@](O)(c3cc4c(c(-c5ccc(F)c(Cl)c5)n3)OC[C@]4(C)C(N)=O)C3CC3)cc2c1 [Example 503] | < 0.2 µM | < 0.5 µM | – | – | –
4 | COc1cc(C(=O)NC[C@](O)(c2cc3c(c(-c4ccc5c(c4)OC(F)(F)O5)n2)OC[C@]3(C)C(N)=O)C2(F)CC2)cc2cn(C3(F)CC3)nc12 [Example 725] | < 0.2 µM | < 0.5 µM | – | – | –
5 | COc1cc(C(=O)NC[C@](O)(c2cc3c(c(-c4ccc(F)c(F)c4Cl)n2)OC[C@]3(C)C(N)=O)C2CC2)cc2cn(C3(F)CC3)nc12 [Example 562] | < 0.2 µM | < 0.5 µM | – | – | –
6 | COc1cc(C(=O)NC[C@@](O)(c2cc3c(c(-c4ccc5c(c4)OC(F)(F)C(F)(F)O5)n2)OC[C@]3(C)C(N)=O)C(F)(F)F)cc2cn(C3CC3)nc12 [Example 954] | – | > 0.5 µM | < 0.2 µM | – | –
7 | Cc1cnc2c(Cl)cc(C(=O)NC[C@](O)(c3cc4c(c(-c5ccc(F)cc5)n3)OC[C@]4(C)C(N)=O)C3CC3)cc2c1 [Example 740] | < 0.2 µM | < 0.5 µM | – | – | –
8 | COc1cc(C(=O)NC[C@](O)(c2nc(-c3ccc(F)c(Cl)c3F)c3c(c2F)[C@@](C)(C(N)=O)CO3)C2CC2)cc2cn(C3CC3)nc12 [Example 1160] | – | < 0.5 µM | < 0.2 µM | – | –
9 | COc1cc(C(=O)NC[C@](O)(c2cc3c(c(-c4cc(F)c(F)c(Cl)c4)n2)OC[C@]3(C)C(N)=O)C(F)(F)F)cc2cc(Br)cnc12 [Example 785] | < 0.2 µM | < 0.5 µM | – | – | –
10 | COc1cc(C(=O)NC[C@](O)(c2cc3c(c(-c4ccc(F)cc4)n2)OC[C@]3(C)C(N)=O)C2CCC2)cc2cn(C3(F)CC3)nc12 [Example 726] | < 0.2 µM | < 0.5 µM | – | – | –
11 | COc1cc(C(=O)NC[C@](O)(c2cc3c(c(-c4ccc(OC(F)F)cc4)n2)OC[C@]3(C)C(N)=O)C(F)(F)F)cc2cn(C3CC3)nc12 [Example 926] | – | > 0.5 µM | < 0.2 µM | – | –
12 | COc1cc(C(=O)NC[C@](O)(c2cc3c(c(-c4ccc(F)cc4)n2)OC[C@]3(CF)C(N)=O)C2CC2)cc2cc(C3CC3)nn12 [Example 1060] | – | < 0.5 µM | < 0.2 µM | – | –
13 | COc1ccc(C(=O)NC[C@](O)(c2cc3c(c(-c4ccc(F)cc4)n2)OC[C@]3(C)C(N)=O)C(F)(F)F)c2[nH]ccc12 [Example 696] | < 0.2 µM | > 0.5 µM | – | – | –
14 | [2H]C([2H])([2H])[C@](O)(CNC(=O)c1cc(OC2CC2)c2ncccc2c1)c1cc2c(c(-c3ccc(F)cc3)n1)OC[C@]2(C)C(N)=O [Example 646] | < 0.2 µM | > 0.5 µM | – | – | –
15 | COc1cc(C(=O)NC[C@](O)(c2cc3c(c(-c4ccc5c(c4)OC(F)(F)O5)n2)OC[C@]3(C)C(N)=O)C(F)(F)F)ccc1OC1CC1 [Example 817] | < 0.2 µM | < 0.5 µM | – | – | –
16 | Cc1cnc2c(Cl)cc(C(=O)NC[C@](O)(c3cc4c(c(-c5cc(Br)c(F)cc5F)n3)OC[C@]4(C)C(N)=O)C3CC3)cc2c1 [Example 1093] | – | < 0.5 µM | < 0.2 µM | – | –
17 | COc1cc(C(=O)NC[C@](O)(c2cc3c(c(-c4ccc(F)c(F)c4F)n2)OC[C@]3(C)C(N)=O)C2(F)CC2)cc2cn(C(F)F)nc12 [Example 744] | < 0.2 µM | < 0.5 µM | – | – | –
18 | COc1cc(C(=O)NC[C@](O)(c2cc3c(c(-c4cc(Br)c(F)cc4F)n2)OC[C@]3(C)C(N)=O)C2CC2)cc2cn(C(F)F)nc12 [Example 1097] | – | < 0.5 µM | < 0.2 µM | – | –
19 | Cc1cnc2c(OC(F)F)cc(C(=O)NC[C@](O)(c3cc4c(c(-c5ccc(F)cc5)n3)OC[C@@]4(C(N)=O)C(F)F)C3CC3)cc2c1 [Example 1027] | – | < 0.5 µM | < 0.2 µM | – | –
20 | COc1cc(C(=O)NC[C@](O)(c2cc3c(c(-c4ccc(F)c(C(F)(F)F)c4)n2)OC[C@]3(C)C(N)=O)C(F)(F)F)cc2cn(C3CC3)nc12 [Example 974] | – | < 0.5 µM | < 0.2 µM | – | –

Row | SMILES | EC50 [1, 3] | EC50 [2, 4] | EC50 [1, 5] | EC50 ([1]; RSV-A Long strain, read-out: Human RSV-A (“Long”) EC50) | EC50 [2]
21 | COc1cc(C(=O)NC[C@](O)(c2cc3c(c(-c4ccc5c(c4)OC(F)(F)O5)n2)OC[C@@]3(C(N)=O)C(F)F)C2CC2)cc2cn(C3(F)CC3)nc12 [Example 1042] | – | < 0.5 µM | < 0.2 µM | – | –
22 | COc1cc(C(=O)NC[C@](O)(c2cc3c(c(-c4ccc(Cl)cc4F)n2)OC[C@]3(C)C(N)=O)C(F)(F)F)cc2cn(C3CC3)nc12 [Example 987] | – | < 0.5 µM | < 0.2 µM | – | –
23 | COc1cc(C(=O)NC[C@](O)(c2nc(-c3ccc4c(c3)OC(F)(F)O4)c3c(c2F)[C@@](C)(C(N)=O)CO3)C2CC2)cc2cn(C3CC3)nc12 [Example 857] | – | < 0.5 µM | < 0.2 µM | – | –
24 | COc1cc(C(=O)NC[C@](O)(c2cc3c(c(-c4ccc5c(c4)OC(F)(F)O5)n2)OC[C@]3(C)C(N)=O)C2CC2)cc2cc(Br)cnc12 [Example 543] | < 0.2 µM | < 0.5 µM | – | – | –
25 | COc1cc(C(=O)NC[C@](O)(c2cc3c(c(-c4ccc(OC(F)F)c(F)c4)n2)OC[C@]3(C)C(N)=O)C(F)(F)F)cc2cn(C3CC3)nc12 [Example 920] | – | < 0.5 µM | < 0.2 µM | – | –
26 | Cc1cnc2c(Cl)cc(C(=O)NC[C@](O)(c3cc4c(c(-c5csc6c(F)cccc56)n3)OC[C@]4(C)C(N)=O)C(F)(F)F)cc2c1 [Example 601] | < 0.2 µM | < 0.5 µM | – | – | –
27 | Cc1cnc2c(Cl)cc(C(=O)NC[C@](O)(c3cc4c(c(-c5cc(F)c(F)cc5F)n3)OC[C@]4(C)C(N)=O)C3CC3)cc2c1 [Example 1153] | – | < 0.5 µM | < 0.2 µM | – | –
28 | COc1cc(C(=O)NC[C@](O)(c2cc3c(c(-c4ccc(OCC(F)F)cc4)n2)OC[C@]3(C)C(N)=O)C(F)(F)F)cc2cn(C3CC3)nc12 [Example 979] | – | < 0.5 µM | < 0.2 µM | – | –
29 | COc1cc(C(=O)NC[C@@](O)(c2cc3c(c(-c4ccc5c(c4)OC(F)(F)C(F)(F)O5)n2)OC[C@]3(C)C(N)=O)C(F)(F)F)cc2cn(C3CC3)nc12 [Example 1219] | – | – | – | < 0.2 µM | > 0.5 µM
30 | COc1cc(C(=O)NC[C@](O)(c2cc3c(c(-c4ccc5c(ccn5C(F)F)c4)n2)OC[C@]3(C)C(N)=O)C(F)(F)F)cc2cn(C3CC3)nc12 [Example 939] | – | > 0.5 µM | < 0.2 µM | – | –
31 | COc1cc(C(=O)NC[C@](O)(c2cc3c(c(-c4cc(Cl)c(F)cc4F)n2)OC[C@]3(C)C(N)=O)C(F)(F)F)cc2cn(C(F)F)nc12 [Example 614] | < 0.2 µM | > 0.5 µM | – | – | –
32 | COc1cc(C(=O)NC[C@](O)(c2cc3c(c(-c4ccc(F)c(Cl)c4)n2)OC[C@]3(C)C(N)=O)C2CC2)cc2cn(C(F)F)nc12 [Example 574] | < 0.2 µM | < 0.5 µM | – | – | –
33 | COc1cc(C(=O)NC[C@](O)(c2cc3c(c(-c4cccc(OC(F)(F)F)c4)n2)OC[C@]3(C)C(N)=O)C(F)(F)F)cc2cn(C3CC3)nc12 [Example 978] | – | > 0.5 µM | < 0.2 µM | – | –
34 | Cc1cnc2c(OC(F)F)cc(C(=O)NC[C@](O)(c3cc4c(c(-c5ccc(F)c(F)c5Cl)n3)OC[C@]4(C)C(N)=O)C3(F)CC3)cc2c1 [Example 746] | < 0.2 µM | < 0.5 µM | – | – | –
35 | COc1cc(C(=O)NC[C@](O)(c2cc3c(c(-c4ccc(F)c(C(F)(F)F)c4)n2)OC[C@]3(C)C(N)=O)C2(F)CC2)cc2cn(C(F)F)nc12 [Example 751] | < 0.2 µM | < 0.5 µM | – | – | –
36 | COc1cc(C(=O)NC[C@](O)(c2cc3c(c(-c4ccc(F)cc4)n2)OC[C@@H]3C(N)=O)C(F)(F)F)cc2cn(C3CC3)nc12 [Example 653] | < 0.2 µM | > 0.5 µM | – | – | –
37 | COc1cc(C(=O)NC[C@](O)(c2cc3c(c(-c4cccc(F)c4Cl)n2)OC[C@]3(C)C(N)=O)C2CC2)cc2cn(C3CC3)nc12 [Example 1122] | – | < 0.5 µM | < 0.2 µM | – | –
38 | Cc1cnc2c(OC(F)F)cc(C(=O)NC[C@](O)(c3cc4c(c(-c5ccc(F)c(Cl)c5)n3)OC[C@]4(C)C(N)=O)C(F)(F)F)cc2c1 [Example 494] | < 0.2 µM | < 0.5 µM | – | – | –
39 | COc1cc(C(=O)NC[C@](O)(c2cc3c(c(-c4ccc5nn(C(F)F)cc5c4)n2)OC[C@]3(C)C(N)=O)C(F)(F)F)cc2cn(C3CC3)nc12 [Example 938] | – | > 0.5 µM | > 0.2 µM | – | –

From patent US12612412B2, “Antiviral heterocyclic compounds” (Enanta Pharmaceuticals, Inc., priority 2021, dated 2026)
